Data published in patent US9765018B2, “IDO inhibitors” (BRISTOL-MYERS SQUIBB COMPANY, priority 2013, dated 2017).

What was measured:
[1] = target: T1, IDO (Homo sapiens (Human), UniProt P14902); assay: Kynurenine assay in IFN-γ-stimulated Hela cells; format: cell-based; conditions: 20 h, read-out: Hela Kyurenine (IC50)
Summary of the method: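 Hela cells adhered 5-6 h, then received inhibitor (top dose 30 μM, 3-fold dilutions to 1.5 nM) plus 100 ng/mL human IFN-γ to induce IDO, 20 h at 37° C. TCA added, 30 min at 50° C hydrolyses N-formylkynurenine to kynurenine. Supernatant mixed with Ehrlich reagent, 10 min RT, absorbance 490 nm.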

[2] = target: T1, IDO; assay: LLE_IDO_ABS_DR (IDO assay, method not described)

T1 sequence (P14902 whole entry): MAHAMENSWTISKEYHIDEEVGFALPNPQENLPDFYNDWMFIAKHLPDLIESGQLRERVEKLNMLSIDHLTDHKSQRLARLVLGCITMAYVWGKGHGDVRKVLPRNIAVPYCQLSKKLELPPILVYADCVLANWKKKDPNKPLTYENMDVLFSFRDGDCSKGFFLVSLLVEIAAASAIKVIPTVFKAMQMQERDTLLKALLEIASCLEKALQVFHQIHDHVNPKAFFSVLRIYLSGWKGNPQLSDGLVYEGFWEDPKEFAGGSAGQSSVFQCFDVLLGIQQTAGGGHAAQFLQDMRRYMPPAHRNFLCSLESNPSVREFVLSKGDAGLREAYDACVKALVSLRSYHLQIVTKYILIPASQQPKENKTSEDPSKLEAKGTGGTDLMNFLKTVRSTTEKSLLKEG

Row | IC50 [1] | IC50 [2] | SMILES
1 | 0.16 µM | 0.68 µM | Cc1ccc(NC(=O)Nc2cc(-c3ccccc3-c3nnn[nH]3)ccc2Oc2cccc3c2CCCC3)cc1 [Example 185, 1-(4-(5,6,7,8-tetrahydronaphthalen-1-yloxy)-2′-(1H-tetrazol-5-yl)biphenyl-3-yl)-3-p-tolylurea]
2 | 0.27 µM | 0.58 µM | COc1ccc(-c2ccc(Oc3ccc4c(c3)CCCC4)c(NC(=O)Nc3ccccc3C)c2)cc1C(=O)O [Example 146, 4-methoxy-4′-(5,6,7,8-tetrahydronaphthalen-2-yloxy)-3′-(3-o-tolylureido)biphenyl-3-carboxylic acid]
3 | 0.92 µM | 1.06 µM | CCCNC(=O)Nc1cc(-c2ccc(OC)c(C(=O)O)c2)ccc1Oc1cccc2c1CCCC2 [Example 118, 4-methoxy-3′-(3-propylureido)-4′-(5,6,7,8-tetrahydronaphthalen-1-yloxy)biphenyl-3-carboxylic acid]
4 | 0.13 µM | 0.39 µM | CCc1ccccc1Oc1ccc(-c2ccc(OC)c(C(=O)O)c2)cc1NC(=O)Nc1cccc(C)c1 [Example 57, 4′-(2-ethylphenoxy)-4-methoxy-3′-(3-m-tolylureido)biphenyl-3-carboxylic acid]
5 | 0.09 µM | 0.74 µM | Cc1ccccc1NC(=O)Nc1cc(-c2ccccc2-c2nnn[nH]2)ccc1Oc1ccccc1C(C)(C)C [Example 181, 1-(4-(2-tert-butylphenoxy)-2′-(1H-tetrazol-5-yl)biphenyl-3-yl)-3-o-tolylurea]
6 | 0.28 µM | 0.33 µM | COc1ccc(-c2ccc(Oc3ccccc3C(C)(C)C)c(NC(=O)Nc3ccccc3Cl)c2)c(C(=O)O)c1 [Example 164, 4′-(2-tert-butylphenoxy)-3′-(3-(2-chlorophenyl)ureido)-4-methoxybiphenyl-2-carboxylic acid]
7 | 0.36 µM | 1.24 µM | O=C(Nc1ccc(Cl)cc1)Nc1cc(-c2ccccc2-c2nnn[nH]2)ccc1Oc1cccc2c1CCCC2 [Example 189, 1-(4-chlorophenyl)-3-(4-(5,6,7,8-tetrahydronaphthalen-1-yloxy)-2′-(1H-tetrazol-5-yl)biphenyl-3-yl)urea]
8 | 0.37 µM | 1.05 µM | COc1ccc(-c2ccc(Oc3cccc(C(C)(C)C)c3)c(NC(=O)Nc3cccc(C)c3)c2)cc1C(=O)O [Example 112, 4′-(3-tert-butylphenoxy)-4-methoxy-3′-(3-m-tolylureido)biphenyl-3-carboxylic acid]
9 | 0.14 µM | 0.53 µM | COc1ccc(-c2ccc(Oc3ccccc3C(C)C)c(NC(=O)Nc3ccccc3Cl)c2)cc1C(=O)O [Example 62, 3′-(3-(2-chlorophenyl)ureido)-4′-(2-isopropylphenoxy)-4-methoxybiphenyl-3-carboxylic acid]
10 | 1.67 µM | 3.81 µM | Cc1ccccc1NC(=O)Nc1cc(-c2cc(Cl)ccc2C(=O)O)ccc1Oc1ccccc1C(C)(C)C [Example 167, 4′-(2-tert-butylphenoxy)-5-chloro-3′-(3-o-tolylureido)biphenyl-2-carboxylic acid]
11 | 0.44 µM | 1.25 µM | Cc1ccc(NC(=O)Nc2cc(-c3ccc(C(=O)O)c(Cl)c3)ccc2Oc2ccccc2C(C)(C)C)cc1 [Example 257, 4′-(2-tert-butylphenoxy)-3-chloro-3′-(3-p-tolylureido) biphenyl-4-carboxylic acid]
12 | 0.14 µM | 0.82 µM | COc1ccc(-c2ccc(Oc3ccccc3C3CC3)c(NC(=O)Nc3ccccc3Cl)c2)cc1C(=O)O [Example 124, 3′-(3-(2-chlorophenyl)ureido)-4′-(2-cyclopropylphenoxy)-4-methoxybiphenyl-3-carboxylic acid]
13 | 0.53 µM | 2.05 µM | COc1ccc(-c2ccc(Oc3cccc4c3CCCC4=O)c(NC(=O)Nc3ccccc3Cl)c2)cc1C(=O)O [Example 149, 3′-(3-(2-chlorophenyl)ureido)-4-methoxy-4′-(5-oxo-5,6,7,8-tetrahydronaphthalen-1-yloxy)biphenyl-3-carboxylic acid]
14 | 0.24 µM | 0.77 µM | CCc1ccccc1Oc1ccc(-c2ccc(OC)c(C(=O)O)c2)cc1NC(=O)Nc1cccc(Cl)c1 [Example 58, 3′-(3-(3-chlorophenyl)ureido)-4′-(2-ethylphenoxy)-4-methoxybiphenyl-3-carboxylic acid]
15 | 0.21 µM | 1.19 µM | COc1ccccc1NC(=O)Nc1cc(-c2ccc(OC)c(C(=O)O)c2)ccc1Oc1ccccc1C(C)(C)C [Example 83, 4′-(2-(tert-butyl)phenoxy)-4-methoxy-3′-(3-(2-methoxyphenyl)ureido)-[1,1′-biphenyl]-3-carboxylic acid]
16 | 0.2 µM | 0.63 µM | COc1ccc(-c2ccc(Oc3ccccc3C(C)C)c(NC(=O)Nc3cccc(C)c3)c2)cc1C(=O)O [Example 65, 4′-(2-isopropylphenoxy)-4-methoxy-3′-(3-m-tolylureido)biphenyl-3-carboxylic acid]
17 | 0.24 µM | 0.66 µM | Cc1ccc(NC(=O)Nc2cc(-c3cc(Cl)ccc3C(=O)O)ccc2Oc2ccccc2C(C)(C)C)cc1 [Example 168, 4′-(2-tert-butylphenoxy)-5-chloro-3′-(3-p-tolylureido)biphenyl-2-carboxylic acid]

Row | IC50 [1] | IC50 [2] | SMILES
18 | 0.12 µM | 0.48 µM | COc1ccc(-c2ccc(Oc3cccc4ccccc34)c(NC(=O)Nc3cccc(C)c3)c2)cc1C(=O)O [Example 130, 4-methoxy-4′-(naphthalen-1-yloxy)-3′-(3-m-tolylureido)biphenyl-3-carboxylic acid]
19 | 0.37 µM | 0.55 µM | CCCc1ccccc1Oc1ccc(-c2ccc(OC)c(C(=O)O)c2)cc1NC(=O)Nc1ccccc1C [Example 75, 4-methoxy-4′-(2-propylphenoxy)-3′-(3-o-tolylureido)biphenyl-3-carboxylic acid]
20 | 0.18 µM | 0.64 µM | COc1ccc(-c2ccc(Oc3ccccc3C(C)C)c(NC(=O)Nc3ccccc3C)c2)cc1C(=O)O [Example 64, 4′-(2-isopropylphenoxy)-4-methoxy-3′-(3-o-tolylureido)biphenyl-3-carboxylic acid]
21 | 0.17 µM | 0.45 µM | CC(C)(C)c1ccccc1Oc1ccc(-c2ccccc2-c2nnn[nH]2)cc1NC(=O)Nc1ccccc1F [Example 190, 1-(4-(2-tert-butylphenoxy)-2′-(1H-tetrazol-5-yl)biphenyl-3-yl)-3-(2-fluorophenyl)urea]
22 | 0.6 µM | 2.04 µM | CCCc1ccccc1Oc1ccc(-c2ccc(OC)c(C(=O)O)c2)cc1NC(=O)Nc1cccc(C)c1 [Example 76, 4-methoxy-4′-(2-propylphenoxy)-3′-(3-m-tolylureido)biphenyl-3-carboxylic acid]
23 | 0.64 µM | 0.68 µM | Cc1ccccc1NC(=O)Nc1cc(-c2ccccc2C(=O)O)ccc1Oc1ccccc1C(C)(C)C [Example 156, 4′-(2-tert-butylphenoxy)-3′-(3-o-tolylureido)biphenyl-2-carboxylic acid]
24 | 0.38 µM | 16.7 µM | COc1ccc(-c2cnc(Oc3ccccc3C(C)(C)C)c(NC(=O)Nc3cccc(C)c3)c2)cc1C(=O)O [Example 334]
25 | 0.09 µM | 0.31 µM | Cc1ccc(NC(=O)Nc2cc(-c3cccc(F)c3C(=O)O)ccc2Oc2ccccc2C(C)(C)C)cc1 [Example 171, 4′-(2-tert-butylphenoxy)-3-fluoro-3′-(3-p-tolylureido)biphenyl-2-carboxylic acid]
26 | 0.87 µM | 1.83 µM | O=C(Nc1ccccc1F)Nc1cc(-c2ccccc2-c2nnn[nH]2)ccc1Oc1cccc2c1CCCC2 [Example 188, 1-(2-fluorophenyl)-3-(4-(5,6,7,8-tetrahydronaphthalen-1-yloxy)-2′-(1H-tetrazol-5-yl)biphenyl-3-yl)urea]
27 | 0.68 µM | 2.64 µM | COc1ccc(-c2ccc(Oc3cccc4c3OC(C)(C)C4)c(NC(=O)Nc3ccccc3C)c2)cc1C(=O)O [Example 139, 4′-(2,2-dimethyl-2,3-dihydrobenzofuran-7-yloxy)-4-methoxy-3′-(3-o-tolylureido)biphenyl-3-carboxylic acid]
28 | 0.99 µM | 1.46 µM | COc1ccc(-c2ccc(O[C@@H]3CCCC[C@H]3C)c(NC(=O)Nc3ccccc3Cl)c2)cc1C(=O)O (relative stereo) [Example 132, 3′-(3-(2-chlorophenyl)ureido)-4-methoxy-4′-((trans)-2-methylcyclohexyloxy)biphenyl-3-carboxylic acid]
29 | 0.97 µM | 3.85 µM | COc1ccc(-c2ccc(Oc3cccc4c3OC(C)(C)C4)c(NC(=O)Nc3cccc(C)c3)c2)cc1C(=O)O [Example 140, 4′-(2,2-dimethyl-2,3-dihydrobenzofuran-7-yloxy)-4-methoxy-3′-(3-m-tolylureido)biphenyl-3-carboxylic acid]
30 | 0.52 µM | 0.81 µM | O=C(Nc1ccc(Cl)cc1)Nc1cc(-c2ccccc2-c2nnn[nH]2)cc(CC2CC2)c1OC1CCOCC1 [Example 331]
31 | 0.59 µM | 1.83 µM | COc1ccc(-c2ccc(Oc3cccc4c3OC(C)(C)C4)c(NC(=O)Nc3ccccc3Cl)c2)cc1C(=O)O [Example 133, 3′-(3-(2-chlorophenyl)ureido)-4′-(2,2-dimethyl-2,3-dihydrobenzofuran-7-yloxy)-4-methoxybiphenyl-3-carboxylic acid]
32 | 0.11 µM | 0.39 µM | COc1ccc(-c2ccc(Oc3cccc(C)c3C)c(NC(=O)Nc3ccccc3C)c2)cc1C(=O)O [Example 121, 4′-(2,3-dimethylphenoxy)-4-methoxy-3′-(3-o-tolylureido)biphenyl-3-carboxylic acid]
33 | 0.93 µM | 10 µM | COc1ccccc1NC(=O)Nc1cc(-c2cccc(C(=O)O)c2)ccc1Oc1ccccc1C(C)(C)C [Example 227, 4′-(2-tert-butylphenoxy)-3′-(3-(2-methoxyphenyl)ureido)biphenyl-3-carboxylic acid]
